Results as given in PubChem BioAssay (NCI).
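GI50 is the concentration that inhibits growth by half. At the TGI there is no net growth.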

Assays:
Test in all cases: NCI-60 cell line screen, 384-well format
MDA-MB-231 breast = system: MDA-MB-231 breast
MDA-MB-468 breast = system: MDA-MB-468 breast
BT-549 breast = system: BT-549 breast
EKVX NSCLC = system: EKVX NSCLC
SF-539 CNS = system: SF-539 CNS
NCI-H226 lung = system: NCI-H226 lung
OVCAR-3 ovarian = system: OVCAR-3 ovarian
MOLT-4 leukemia = system: MOLT-4 leukemia
HL-60(TB) leukemia = system: HL-60(TB) leukemia
CCRF-CEM leukemia = system: CCRF-CEM leukemia
NCI/ADR-RES ovarian = system: NCI/ADR-RES ovarian
HOP-62 NSCLC = system: HOP-62 NSCLC
A498 renal = system: A498 renal

Structure (SMILES) | GI50 (MDA-MB-231 breast) [µM] | TGI (MDA-MB-231 breast) [µM] | GI50 (MDA-MB-468 breast) [nM] | TGI (MDA-MB-468 breast) [µM] | GI50 (BT-549 breast) [nM] | TGI (BT-549 breast) [µM] | GI50 (EKVX NSCLC) [nM] | TGI (EKVX NSCLC) [µM] | GI50 (SF-539 CNS) [µM] | TGI (SF-539 CNS) [µM] | GI50 (NCI-H226 lung) [µM] | TGI (NCI-H226 lung) [µM] | GI50 (OVCAR-3 ovarian) [nM] | TGI (OVCAR-3 ovarian) [µM] | GI50 (MOLT-4 leukemia) [nM] | TGI (MOLT-4 leukemia) [nM] | GI50 (HL-60(TB) leukemia) [nM] | TGI (HL-60(TB) leukemia) [nM] | GI50 (CCRF-CEM leukemia) [nM] | TGI (CCRF-CEM leukemia) [µM] | also measured
CN1C(=O)[C@@H](CC2CCCC2)N(C2CCCC2)c2nc(Nc3cc(Cl)c(O)c(Cl)c3)ncc21 | 7.5 | > 100 | 2890 | 8.38 | 4020 | 17.5 | 3550 | 20 | 8.81 | 27.2 | 11.5 | 31.7 | 4550 | 15.8 | 1670 | 3060 | 1750 | 3170 | 3050 | 8.14 | GI50 (NCI/ADR-RES ovarian): 3460 nM; TGI (NCI/ADR-RES ovarian): 26.7 µM; GI50 (HOP-62 NSCLC): 12.1 µM; TGI (HOP-62 NSCLC): 33.1 µM; GI50 (A498 renal): 10.1 µM; TGI (A498 renal): 27.1 µM
Cc1c(Br)c(Br)c2c3c1nc(N1CCNCC1)n3CCC2 | 1.6 | 3.24 | 1150 | 2.37 | 1350 | 2.64 | 1570 | 2.95 | 1.64 | 3.01 | 1.2 | 2.62 | 1420 | 2.74 | 1230 | 2480 | 490 | 998 | 885 | 2.17 | GI50 (NCI/ADR-RES ovarian): 1680 nM; TGI (NCI/ADR-RES ovarian): 3.27 µM; GI50 (HOP-62 NSCLC): 1.72 µM; TGI (HOP-62 NSCLC): 3.57 µM; GI50 (A498 renal): 0.792 µM; TGI (A498 renal): 2.07 µM
